{"source": "patent US20250154180A1", "about": "“CRK-LIKE (CRKL) ADAPTOR PROTEIN INHIBITORS AND METHODS OF MAKING AND USING THE SAME” (Rutgers, The State University of New Jersey, priority 2022, published 2025)", "key": {"[1]": {"tested_on": "HCC HepG2 cells", "test": "MTT proliferation assay, HepG2", "type": "cell-based", "conditions": "48 hours", "protocol": "(§1) MTT assay—The MTT assay was used to detect cell proliferation. Briefly, cells were plated in a 96-well plate at a density of 50,000 cells/well in 200 μl of culture medium with candidate drugs to be tested (DMSO as a negative control). The treated cells were incubated for four hours a 37° C. with a 5% CO2 incubator to allow dark crystals to form at the bottom of the wells. After culturing for 48 hours, 10 ml of MTT reagent was added to each well and mixed gently for one minute. After aspirating the culture medium from each well, 100 μl of crystal dissolving solution was added to each well and incubated for 10 minutes at RT. The signal was quantified by measuring the absorbance in each sample at 570 nm using a microplate reader."}, "[2]": {"test": "Thermodynamic solubility", "type": "physicochemical", "conditions": "thermodynamic from solid", "protocol": "In this example, solubility measurement assays were performed using a phosphate buffer (also referred to as “PB”) system and a water system to evaluate thermodynamic solubility. The PB system was at a pH of 7.4 to mimic in vivo environments. For the PB system, the values were determined to be NC5: Thermodynamic Solubility pH=7.4<0.42 μg/mL; Compound III: Thermodynamic Solubility pH=7.4<0.48 μg/mL; and Compound I: Thermodynamic Solubility pH=7.4<0.48 μg/mL. Results for the water assay were as follows: NC5: Thermodynamic Solubility Water<0.42 μg/mL; Compound III: Thermodynamic Solubility Water<0.48 μg/mL; and Compound I: Thermodynamic Solubility Water<0.48 μg/mL."}, "[3]": {"tested_on": "P-ERK1/2 in PBMC", "test": "Western blotting, PBMC", "type": "cell-based, human", "conditions": "NC5 1, 5, 10 uM, 24 hours"}, "[4]": {"tested_on": "PBNK cells killing activity towards MDA-MB-231", "test": "Cr51 release assay, PBNK killing of MDA-MB-231", "type": "cell-based", "conditions": "1 uM overnight", "protocol": "(§2) PBNK cells were incubated with 1 uM NC5 or Compound III overnight, then cells were harvested for Cr51 release assay to check cell cytotoxicity. […] The star symbol indicates the significance of vehicle control vs. NC5 of the indicated E:T ratios. *p<0.05, **p<0.01, n=3."}, "[5]": {"tested_on": "Hs578T cells", "test": "MTT proliferation assay, Hs578T", "type": "cell-based", "conditions": "2.5 μM, 48 hours, vs DMSO", "protocol": "as §1"}, "[6]": {"tested_on": "CrkL (phosphorylation at Y207 by Ab1)", "test": "AlphaScreen of Ab1 phosphorylation of CrkL at Y207", "type": "biochemical", "conditions": "positive hits defined as a 50% decrease in Alpha signal vs DMSO"}, "[7]": {"tested_on": "hematopoietic cancer cell lines (K562, NK92-MI, Daudi, KHYG-1)", "test": "MTT assay, hematopoietic cancer cell lines", "type": "cell-based", "conditions": "five M Pomiferin for three days; compared with MDA-MD-231-LUC", "protocol": "as §1, with “After culturing for 48 hours, 10 ml of MTT reagent was added to each well and mixed gently for one minute.” left out\n(§3) To further test the inhibitory specificity of Pomiferin for specific breast cancer cell lines, The survival percentage was compared between different hematopoietic cancer cell lines and healthy PBMCs."}, "[8]": {"tested_on": "PBNK cells killing activity towards SK-Hep1", "test": "Cr51 release assay, PBNK killing of SK-Hep1", "type": "cell-based", "conditions": "1 uM overnight", "protocol": "as §2"}, "[9]": {"tested_on": "MDA-MB-231 cells", "test": "MTT proliferation assay, MDA-MB-231", "type": "cell-based", "protocol": "as §1\nCompound II is referred to as “NC5-SO2F” in FIGS. 7A-7C.\nCell proliferation was first determined by MTT assay as confirmation. […] CrkL is known to mediate the activation of both Raf/ERK and PI3K pathways. So, proteins that relate to these two pathways were utilized."}, "[10]": {"tested_on": "PBMC cells", "test": "Annexin V/PI apoptosis, PBMC", "type": "cell-based, human", "conditions": "various concentrations, 24 hours", "protocol": "Annexin V/PI Staining—Experimental cells were collected, washed with 1×PBS, resuspended in the binding buffer, and stained with an Annexin V-FITC assay Kit (Millipore Sigma). The cells were incubated with 50 μg/ml Annexin V in 1× binding buffer at room temperature for 15 minutes, then 10 μg/ml propidium iodide for another 15 minutes and analyzed by flow cytometry (EPICS XL). Annexin V-positive/PI-negative cells were considered early apoptotic, cells with both Annexin V and PI-positive to be late apoptotic, and Annexin V negative but PI-positive to be “necrotic.” The percent of apoptosis was calculated as the sum of the percentages of both early and late apoptotic cells.\nTo figure out the features of cytotoxic effects of Pomiferin on breast cancer cells. Pomiferin-treated breast cancer cells were stained with an Annexin V/PI kit and measured them with Flow Cytometry."}, "[11]": {"biological_target": "Ab1 (Homo sapiens, UniProt P00519)", "sequence (P00519 whole entry)": "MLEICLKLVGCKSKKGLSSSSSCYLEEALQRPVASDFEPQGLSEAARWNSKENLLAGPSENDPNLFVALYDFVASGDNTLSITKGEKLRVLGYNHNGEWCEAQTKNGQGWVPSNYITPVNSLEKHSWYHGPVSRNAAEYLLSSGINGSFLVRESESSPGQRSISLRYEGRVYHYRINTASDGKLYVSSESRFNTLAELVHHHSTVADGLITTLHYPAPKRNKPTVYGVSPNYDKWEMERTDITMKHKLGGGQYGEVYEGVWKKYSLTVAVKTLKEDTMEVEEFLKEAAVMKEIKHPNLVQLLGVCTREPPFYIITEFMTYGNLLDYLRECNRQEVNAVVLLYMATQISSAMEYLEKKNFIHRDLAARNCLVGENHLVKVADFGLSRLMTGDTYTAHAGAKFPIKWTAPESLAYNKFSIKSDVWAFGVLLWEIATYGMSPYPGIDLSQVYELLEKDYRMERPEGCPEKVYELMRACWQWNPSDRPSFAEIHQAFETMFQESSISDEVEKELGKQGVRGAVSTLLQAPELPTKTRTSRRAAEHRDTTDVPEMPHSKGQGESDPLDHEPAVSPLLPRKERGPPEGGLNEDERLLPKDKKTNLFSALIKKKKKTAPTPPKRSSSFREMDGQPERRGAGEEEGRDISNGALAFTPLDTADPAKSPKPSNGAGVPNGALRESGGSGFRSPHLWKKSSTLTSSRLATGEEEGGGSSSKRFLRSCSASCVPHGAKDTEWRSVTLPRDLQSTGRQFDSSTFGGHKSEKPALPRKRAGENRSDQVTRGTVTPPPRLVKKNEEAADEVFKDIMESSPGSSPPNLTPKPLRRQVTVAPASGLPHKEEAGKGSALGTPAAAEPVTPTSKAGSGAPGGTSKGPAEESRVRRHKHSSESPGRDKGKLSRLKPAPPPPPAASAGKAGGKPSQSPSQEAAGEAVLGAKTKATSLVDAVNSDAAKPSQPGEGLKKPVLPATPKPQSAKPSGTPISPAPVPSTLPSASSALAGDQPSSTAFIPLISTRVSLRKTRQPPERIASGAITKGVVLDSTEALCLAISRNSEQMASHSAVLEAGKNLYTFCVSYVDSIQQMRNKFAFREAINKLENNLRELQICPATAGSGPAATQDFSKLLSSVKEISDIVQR", "test": "Thermal shift assay, Ab1", "type": "binding", "description": "In a thermal shift assay, each tested protein (purified Ab1 or CrkL) has a melting temperature (Tm) detected by a protein stain dye such as Sypro Orange. […] An increase of 2° C. or greater in Tm (stable increase in three independent experiments) was defined as a positive result in these thermal shift assays."}, "[12]": {"biological_target": "CrkL (Homo sapiens, UniProt P46109)", "sequence (P46109 whole entry)": "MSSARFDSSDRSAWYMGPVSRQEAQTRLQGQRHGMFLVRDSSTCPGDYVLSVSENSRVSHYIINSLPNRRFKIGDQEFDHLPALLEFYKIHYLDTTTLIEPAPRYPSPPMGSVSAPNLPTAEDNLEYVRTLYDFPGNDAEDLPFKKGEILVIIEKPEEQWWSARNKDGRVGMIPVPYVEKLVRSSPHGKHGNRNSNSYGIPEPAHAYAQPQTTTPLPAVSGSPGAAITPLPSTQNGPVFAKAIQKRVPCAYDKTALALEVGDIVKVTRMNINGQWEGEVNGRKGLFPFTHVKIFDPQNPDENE", "test": "Thermal shift assay, CrkL", "type": "binding", "conditions": "increase of 2° C. or greater in Tm defined as positive", "protocol": "Thermal Shift Assay—Thermal shift assay is a thermal-denaturation assay, which can measure the thermal stability of a tested protein. When a protein of interest is bound to a ligand (or drug), its melting temperature increases. For each single well assay, CrkL (1 μg per well), SYPRO® Orange (1:500 dilution from original stock), candidate drugs (same final concentration as in AlphaScreen) and reaction buffer (1×TBS) were mixed. The total volume for a single well was 10 ul. The assay was quantified by a melt curve on a real-time PCR machine, using melting temperatures from 20° C. to 95° C.\nTo identify specific pCrk inhibitors, thermal shift and in vitro kinase assays were used to distinguish between these possibilities. In a thermal shift assay, each tested protein (purified Ab1 or CrkL) has a melting temperature (Tm) detected by a protein stain dye such as Sypro Orange. After binding to a drug, the Tm of the tested protein will increase as a higher temperature is required to unfold the protein (FIG. 2A). A total of 71 candidate compounds from different libraries were evaluated, which were previously identified by the initial AlphaScreen assay, on both CrkL and Ab1. An increase of 2° C. or greater in Tm (stable increase in three independent experiments) was defined as a positive result in these thermal shift assays."}, "[13]": {"tested_on": "MDA-231-GFP-LUC cells", "test": "MTT assay, MDA-231-GFP-LUC", "type": "cell-based", "conditions": "five M Pomiferin for three days", "protocol": "as §1, with “After culturing for 48 hours, 10 ml of MTT reagent was added to each well and mixed gently for one minute.” left out\nas §3"}}}
{"compound": "CC(C)=CCc1c2c(c3occ(-c4ccc(O)c(O)c4)c(=O)c3c1O)C=CC(C)(C)O2", "note": "[Pomiferin, 3′,4′,5-Trihydroxy-6″,6″-dimethyl-6-(3-methylbut-2-en-1-yl)-6″H-pyrano[2″,3″:7,8]isoflavone]", "values": [{"measurement": "concentration at which HepG2 cell proliferation starts to be significantly inhibited", "setting": "[1]", "value": "one"}, {"measurement": "solubility thermodynamic", "setting": "[2]; pH 7.4, aqueous buffer", "value": "< 0.42", "unit": "µg/mL"}, {"measurement": "solubility thermodynamic", "setting": "[2]; water", "value": "< 0.42", "unit": "µg/mL"}, {"measurement": "P-ERK1/2 levels (Western blotting)", "setting": "[3]", "value": "minimal changes"}, {"measurement": "PBNK cells killing activity (Cr51 release)", "setting": "[4]", "value": "increased PBNK cells killing activity"}, {"measurement": "cell proliferation (MTT)", "setting": "[5]", "value": "had an inhibitory effect on proliferation"}, {"measurement": "AlphaScreen hit (inhibition of Crk phosphorylation)", "setting": "[6]", "value": "identified hit"}, {"measurement": "sensitivity to Pomiferin (survival percentage, MTT)", "setting": "[7]", "value": "more resistant to Pomiferin inhibition"}, {"measurement": "PBNK cells killing activity (Cr51 release)", "setting": "[8]", "value": "increased PBNK cells killing activity"}, {"measurement": "cell proliferation (MTT)", "setting": "[9]; 1 uM, 5 uM and 10 uM, 24 hours", "value": "significantly inhibited cell proliferation"}, {"measurement": "cell proliferation (MTT)", "setting": "[9]; 2.5 μM, 48 hours, vs DMSO", "value": "blocked cell proliferation"}, {"measurement": "apoptosis", "setting": "[10]", "value": "limited responses"}, {"measurement": "binding to Ab1 versus Crk (thermal shift)", "setting": "[11]", "value": "specifically binds to Crk, but not Ab1 proteins"}, {"measurement": "Tm of CrkL (thermal shift)", "setting": "[12]", "value": "the Tm of CrkL increased"}, {"measurement": "sensitivity to Pomiferin (survival percentage, MTT)", "setting": "[13]", "value": "most sensitive cell to Pomiferin treatment"}]}
